Paper PMC6832265 (Molecules, 2019)

Columns and labels:
Tdp1 = target: T1, Tdp1 (Homo sapiens, UniProt Q9NUW8); test: Real-time detection of Tdp1 activity (5'-FAM/3'-BHQ1 oligonucleotide biosensor); type: biochemical; settings: 1.5 nM Tdp1, 50 nM oligonucleotide substrate, 26 °C
T1 construct: made in house; host or cells: Escherichia coli
Outline: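 Recombinant human Tdp1 (E. coli-expressed, 1.5 nM) with 50 nM 16-mer ssDNA 5'-FAM/3'-BHQ1 biosensor in 50 mM Tris-HCl, 50 mM NaCl, 7 mM β-mercaptoethanol, 26 °C; fluorescence (Ex485/Em520) read each minute. Inhibition from linear-phase slope (0–7 min) vs 1.5% DMSO control; IC50 from six-point curves, ≥2 independent experiments.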

[1] = target: T2, recombinant Tdp1 (residues 149–608) (Homo sapiens, UniProt Q9NUW8); test: Intrinsic tryptophan fluorescence quenching binding assay; settings: 10 µM Tdp1, 20 mM Tris, 250 mM NaCl, pH 8; triplicate
T2 construct: recombinant Tdp1 (residues 149–608) was obtained from GenScript; host or cells: E. coli BL21(DE3)
T2 sequence (Q9NUW8 149-608): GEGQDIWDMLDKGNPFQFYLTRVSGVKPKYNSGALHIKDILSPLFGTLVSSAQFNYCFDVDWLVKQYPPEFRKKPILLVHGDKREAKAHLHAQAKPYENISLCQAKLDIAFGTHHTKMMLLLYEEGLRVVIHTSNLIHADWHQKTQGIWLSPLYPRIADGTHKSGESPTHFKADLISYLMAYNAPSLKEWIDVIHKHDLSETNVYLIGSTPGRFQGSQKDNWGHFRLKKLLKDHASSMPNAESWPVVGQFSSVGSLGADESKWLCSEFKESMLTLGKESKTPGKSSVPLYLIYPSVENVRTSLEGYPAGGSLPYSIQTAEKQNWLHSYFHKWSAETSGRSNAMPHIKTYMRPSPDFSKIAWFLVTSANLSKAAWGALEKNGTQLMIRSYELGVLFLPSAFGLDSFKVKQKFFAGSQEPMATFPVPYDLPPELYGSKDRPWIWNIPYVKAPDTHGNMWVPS
Description: The binding of the synthesized compounds to recombinant Tdp1 was also tested (Table 1 and Table 2) by using an intrinsic tryptophan fluorescence quenching assay. […] As our compounds are aromatic in nature, there is a possibility that they may bind to both the active site as well as non-specifically to the DNA/peptide binding pockets. Nonetheless, our results confirmed that the compounds were indeed binders of Tdp1, thus complementing our inhibition data.
pET-28a(+) plasmid encoding recombinant Tdp1 (residues 149–608) was obtained from GenScript. E. coli BL21(DE3) was used for recombinant protein production. Protein production was induced with 1 mM IPTG at 28 °C with overnight incubation. Tdp1 was purified using affinity and size exclusion chromatography. Fluorescence was measured using a PerkinElmer EnSpire Multimode Reader. Tdp1 concentration was 10 μM with varying compound concentrations. The buffer was 20 mM Tris and 250 mM NaCl (pH 8). The excitation wavelength was 280 nm and intrinsic fluorescence was measured at 350 nm. Control experiments with Tdp1 or the compound on its own were also conducted. Background fluorescence arising from the compounds was subtracted from the final spectrum. The total volume per well was 30 μL. The dissociation constant (KD) was calculated using Equation (1), which takes non-specific binding into account. y = Bmaxx/(KD + x) + Nsx(1) where y denotes the changes in fluorescence intensity; x denotes the concentration of the compounds; Bmax denotes the maximum changes in fluorescence intensity; and Ns is a scaling factor for non-specific binding. Experiments were conducted in triplicate.

T1 sequence (Q9NUW8 whole entry): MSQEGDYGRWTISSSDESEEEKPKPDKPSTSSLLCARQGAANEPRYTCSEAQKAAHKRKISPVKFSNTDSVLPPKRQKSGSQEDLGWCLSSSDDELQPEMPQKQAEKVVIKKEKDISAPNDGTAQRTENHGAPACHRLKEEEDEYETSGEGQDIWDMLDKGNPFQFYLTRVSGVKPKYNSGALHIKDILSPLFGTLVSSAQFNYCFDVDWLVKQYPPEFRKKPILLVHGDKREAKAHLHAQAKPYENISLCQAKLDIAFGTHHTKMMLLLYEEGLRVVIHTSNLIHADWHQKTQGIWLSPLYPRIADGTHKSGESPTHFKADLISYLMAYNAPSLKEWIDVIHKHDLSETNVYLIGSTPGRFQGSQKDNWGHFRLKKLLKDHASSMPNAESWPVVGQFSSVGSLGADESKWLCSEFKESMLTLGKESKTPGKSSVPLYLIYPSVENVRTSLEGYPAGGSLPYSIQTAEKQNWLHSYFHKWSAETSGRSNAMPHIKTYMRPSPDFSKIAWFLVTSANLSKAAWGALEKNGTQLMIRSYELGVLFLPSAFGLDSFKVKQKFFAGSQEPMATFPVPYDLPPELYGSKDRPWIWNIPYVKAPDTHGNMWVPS

Compound	IC50 (Tdp1) [µM]	Kd [1] [µM]
COc1ccc(/C=N/Nc2nc(-c3c(O)c(C)c(O)c4c3OC3=CC(O)=C(C(C)=O)C(=O)[C@]34C)cs2)cc1Cn1nc(C)c([N+](=O)[O-])c1C [(−)-17k, (2S)-4-Acetyl-10-{2-[(E)-2-({3-[(3,5-dimethyl-4-nitro-1H-pyrazol-1-yl)methyl]-4-methoxyphenyl}methylidene)hydrazin-1-yl]-1,3-thiazol-4-yl}-5,11,13-trihydroxy-2,12-dimethyl-8-oxatricyclo[7.4.0.0^2,7]trideca-1(9),4,6,10,12-pentaen-3-one]	0.046 ± 0.005	142 ± 11
CC(=O)C1=C(O)C=C2Oc3c(-c4csc(N/N=C/c5ccccn5)n4)c(O)c(C)c(O)c3[C@@]2(C)C1=O [(+)-16b, 2-[(1E)-(2-{4-[(1R)-12-Acetyl-3,5,11-trihydroxy-1,4-dimethyl-13-oxo-8-oxatricyclo[7.4.0.0^2,7]trideca-2(7),3,5,9,11-pentaen-6-yl]-1,3-thiazol-2-yl}hydrazin-1-ylidene)methyl]pyridin-1-ium bromide]	0.492 ± 0.088	77 ± 24
COc1ccc(/C=N/Nc2nc(-c3c(O)c(C)c(O)c4c3OC3=CC(O)=C(C(C)=O)C(=O)[C@@]34C)cs2)cc1COc1ccc(F)c(Cl)c1 [(+)-17d, (2R)-4-Acetyl-10-{2-[(E)-2-({3-[(3-chloro-4-fluorophenoxy)methyl]-4-methoxyphenyl}methylidene)hydrazin-1-yl]-1,3-thiazol-4-yl}-5,11,13-trihydroxy-2,12-dimethyl-8-oxatricyclo[7.4.0.0^2,7]trideca-1(9),4,6,10,12-pentaen-3-one]	0.077 ± 0.003	130 ± 29
CC(=O)C1=C(O)C=C2Oc3c(-c4csc(N/N=C/c5cccnc5)n4)c(O)c(C)c(O)c3[C@]2(C)C1=O [(−)-16c, 3-[(1E)-(2-{4-[(1S)-12-Acetyl-3,5,11-trihydroxy-1,4-dimethyl-13-oxo-8-oxatricyclo[7.4.0.0^2,7]trideca-2(7),3,5,9,11-pentaen-6-yl]-1,3-thiazol-2-yl}hydrazin-1-ylidene)methyl]pyridin-1-ium bromide]	0.154 ± 0.018	262 ± 25
COc1ccc(/C=N/Nc2nc(-c3c(O)c(C)c(O)c4c3OC3=CC(O)=C(C(C)=O)C(=O)[C@@]34C)cs2)cc1COc1ccccc1F [(+)-17c, (2R)-4-Acetyl-10-{2-[(E)-2-({3-[(2-fluorophenoxy)methyl]-4-methoxyphenyl}methylidene)hydrazin-1-yl]-1,3-thiazol-4-yl}-5,11,13-trihydroxy-2,12-dimethyl-8-oxatricyclo[7.4.0.0^2,7]trideca-1(9),4,6,10,12-pentaen-3-one]	0.041 ± 0.007	204 ± 23
CC(=O)C1=C(O)C=C2Oc3c(-c4csc(N/N=C/c5cnc[nH]5)n4)c(O)c(C)c(O)c3[C@]2(C)C1=O [(−)-16o, 5-[(1E)-(2-{4-[(1S)-12-Acetyl-3,5,11-trihydroxy-1,4-dimethyl-13-oxo-8-oxatricyclo[7.4.0.0^2,7]trideca-2(7),3,5,9,11-pentaen-6-yl]-1,3-thiazol-2-yl}hydrazin-1-ylidene)methyl]-1H-imidazol-1-ium bromide]	0.57 ± 0.109	51 ± 4
CC(=O)C1=C(O)C=C2Oc3c(-c4csc(N/N=C/c5ccco5)n4)c(O)c(C)c(O)c3[C@@]2(C)C1=O [(+)-16k, (2R)-4-Acetyl-5,11,13-trihydroxy-2,12-dimethyl-10-{2-[(E)-2-[(furan-2-yl)methylidene] hydrazin-1-yl]-1,3-thiazol-4-yl}-8-oxatricyclo[7.4.0.0^2,7]trideca-1(9),4,6,10,12-pentaen-3-one]	0.12 ± 0.015	67 ± 9
(2R)-4-Acetyl-10-{2-[(E)-2-({3-[(3,4-difluorophenoxy)methyl]-4-methoxyphenyl}methylidene)hydrazin-1-yl]-1,3-thiazol-4-yl}-5,11,13-trihydroxy-2,12-dimethyl-8-oxatricyclo[7.4.0.0^2,7]trideca-1(9),4,6,10,12-pentaen-3-one [(+)-17e]	0.064 ± 0.006	213 ± 4
